The source of these data is patent publication US20180318347A1, “METHODS FOR TREATING CANCER” (Agenus Inc., priority 2015, published 2018).

“Also recorded” adds a separate entry of the source. Like-named read-outs stand apart in the source and are kept apart here.

The conditions of series [1]: cited from earlier work.
In a further series the test system is GBM patients. The experiment in a line: Adverse events (CTCAE version 4.0) in the same clinical study. The following applies: 46 patients. The class given is in vivo, human. The procedure:
Baseline evaluation including neurologic assessment, complete blood analysis, and tumor imaging with contrast-enhanced MRI was performed pre-operatively and immediately postoperatively, usually within 48 hours. KPS was graded by the treating provider. Repeat assessment by physical examination and imaging was performed at the completion of initial chemoradiotherapy, just prior to the first vaccine administration. Final eligibility to receive vaccine was determined at this time point. After initiation of vaccine therapy, patients were evaluated every 4 weeks by clinical examination, and every 8 weeks by radiographic imaging with contrast-enhanced MRI. Tumor progression was assessed according to the modified RANO criteria (Table 1). Adverse events were assessed and graded according to the National Cancer Institute Common Terminology Criteria for Adverse Event (CTCAE), version 4.0.

The subject of series [2] is GBM. The conditions noted are these: cited from earlier work; for Median PFS / Median Survival: Rad/TMZ plus Avastin arm.
Series [3] deals with GBM. The experiment in a line: Published GBM trials used for comparison (Tables 13 and 14, discussion). The conditions noted are these: Rad/TMZ plus Avastin arm. The class given is in vivo, human.
The mark [4] stands for this setting: AVAglio, Chinot et al, NEJM 2014.
Where [5] appears, read: RTOG 0825 Gilbert, et al. NEJM 2014.
Where [6] appears, read: RTOG 0825 Trial, Gilbert, NEJM 2013, N = 637.

`Cn1nnc2c(C(N)=O)ncn2c1=O` [temozolomide]: in series [1] (following oral administration), the “concentrations in the central nervous system relative to plasma concentrations” value is listed as “approximately 30%”. Besides, the blood-brain barrier penetration entry in series [1] (in vivo) is recorded as “able to cross the blood-brain barrier”. Further, the bioavailability result in series [1] (taken orally) is on record as “greater than 95%”. In the series on GBM patients, the “Any Adverse Event: TWZ-related event” value is listed as 42 (91.3%) no. of patients (%) and the “Grade 3-4 Event: TWZ-related event” value is 21 (45.6%) no. of patients (%).
Turning to bevacizumab [Avastin], in the series on GBM [2] (setting [4]), the “Median PFS” value was 10.6 months and the “Median Survival” value is 16.8 months. For the same compound, in the series with GBM [2] (setting [5]), the “Median PFS” value is given as 10.7 months and the “Median Survival” value was 16.1 months. Further, in the series on GBM [2] (setting [6]), the “Median Survival, Methylated” value is recorded as 23.2 months and the “Median Survival, Unmethylated” value was 14.3 months. Also, in the series with GBM [2] (bevacizumab trials), the “Median overall survival, methylated patients” value is given as 25.0 months and the “Median overall survival, unmethylated patients” value is 14.6 months. Further, the “Benefit of adding bevacizumab to radiation and temozolomide” value in the series on GBM [2] (newly diagnosed GBM, randomized phase 3 trials vs placebo) was “no significant benefit; also recorded: no improvement in overall survival compared to placebo”. Moreover, the “Estimated Post-Progression Survival” value in the series with GBM [3] (setting [4]) was 6.2 months. Further, the “Estimated Post-Progression Survival” value in the series on GBM [3] (setting [5]) is 5.4 months.
